Test results as given in patent US20100190860A1, “METHODS FOR SELECTIVELY ENHANCING ANTINOCICEPTIVE POTENCY OF LOCAL ANESTHETICS” (The Brigham and Women's Hospital, Inc., priority 2009, published 2010).
“Also recorded” adds a separate entry of the source. Counter-ions that a name gives are not always drawn. Like-named read-outs stand apart in the source and are kept apart here.

Tests used:
sciatic nerve [1] = experiment: Rat sciatic nerve block: motor function (extensor postural thrust); type: in vivo
Experimental: The rats were assigned to treatments via block randomization with a block size of 8. All rats were anesthetized by inhalation of 1-2% of sevoflurane (Abbott Laboratory, North Chicago, Ill.) until no withdrawal to pinch of the leg occurred (by forceps). […] All drugs were given alone or co-administered with capsaicin at 0.05%/1.6 mM. Co-administration of capsaicin was performed either 10 minutes after the first drug or simultaneously (e.g., mixed with the local anesthetic). The vehicle control group received local anesthetic followed by injection of vehicle 10 minutes later. Capsaicin was also injected alone as was normal saline. Each drug was injected was injected in a volume of 0.2 mL. The experimenter was blinded to the drug used, but was not blinded to the administration of a second drug 10 minutes later which was either capsaicin or vehicle alone.
The effects of local anesthetics and capsaicin on motor function and nociception were evaluated. Rats were examined before injection for baseline functions, and at 10, 20, 30, 60, and 90 minutes and 2, 3, 6, 12, 24, and 36 hours after drug administration. Motor function was assayed by holding the rat upright with the control hind limb extended so that the distal metatarsus and toes of the target leg supported the animal's weight; the extensor postural thrust was recorded as the force (in grams) applied by each of the two hind limbs to a digital platform balance (Ohaus Lopro; Fisher Scientific, Florham Park, N.J.). The reduction in this force, representing reduced extensor-muscle contraction caused by motor block, was calculated as a percentage of the control force (pre-injection control value=145 to 165 g). The percent reduction in force was assigned a ‘range’ score: 0=no block (or baseline); 1=minimal block, force between the pre-injection control value of 100% and 50%; 2=moderate block, force between 50% of the pre-injection control value and 20 g (˜20 g represented the approximate weight of the flaccid limb); 3=complete block, force 20 g or less.
For both nociceptive and motor assessment, the examination was repeated three times at each time point and reported as an average of the three exams.

sciatic nerve [2] = experiment: Rat sciatic nerve block: nociception (nocifensive withdrawal reflex and vocalization to skin pinch); type: in vivo; conditions: for kind of blockade (nociceptive vs motor), in words: local anesthetic with injection of capsaicin 0.05% 10 minutes later; for effect of vehicle on block, in words: vehicle (10% ethanol, 10% Tween 80, 80% saline) injected 10 min after the drug; for dose-response of block, in words: 0.0625, 0.125 and 0.25%, injection followed by capsaicin
[3] = tested on: cutaneous trunci muscle reflex; type: in vivo, rat
Description: (§1) It was hypothesized that the combined application of amitriptyline and capsaicin as a transdermal patch will produce prolonged cutaneous analgesia compared to amitriptyline alone. Male Sprague-Dawley rats (weights 250-300 g) were assigned to five treatment groups (n=6-8). Transdermal patches containing amitriptyline with different concentrations of capsaicin were applied to the rats' shaved backs: 2.5% amitriptyline alone (control group) and in combinations with 0.05%, 0.15%, 1, and 8% capsaicin for 3 hours. Behavioral testing for cutaneous nociception was conducted before and after patch removal, using the cutaneous trunci muscle reflex (CTMR). In addition, skin appearance was assessed to determine irritation by the formulation.

skin = experiment: Skin appearance / irritation after transdermal patch; type: in vivo, rat
Description: as §1

sciatic nerve [4] = conditions: followed by capsaicin; cited from earlier work
[5] = 0.25% drug + 0.05% capsaicin (10 min apart)
[6] = 0.25% drug + 0.05% capsaicin (mixed)
[7] = 0.25% drug + vehicle (10 min apart)
[8] = 2% drug + 0.05% capsaicin (10 min apart)
[9] = 2% drug + 0.05% capsaicin (mixed)
[10] = 2% drug + vehicle (10 min apart)
[11] = 0.0625% drug + 0.05% capsaicin (10 min apart)
[12] = 0.0625% drug alone, 0.2 mL at sciatic notch
[13] = 0.125% drug + 0.05% capsaicin (10 min apart)
[14] = 0.125% drug + 0.05% capsaicin (mixed)
[15] = 0.125% drug + vehicle (10 min apart)
[16] = 2.5% amitriptyline patch alone, applied 3 hours
[17] = 0.125% solution administered alone

Compound	Complete recovery time, Motor, Mean (sciatic nerve [1]; [5])	Complete recovery time, Motor, Mean (sciatic nerve [1]; 0.25% drug alone)	Complete recovery time, Nociception, Mean (sciatic nerve [2]; [5])	Complete recovery time, Nociception, Mean (sciatic nerve [2]; 0.25% drug alone)	kind of blockade (nociceptive vs motor), in words (sciatic nerve [2])	effect of vehicle on block, in words (sciatic nerve [2])	kind of blockade (nociceptive vs motor), in words (sciatic nerve [2]; hydrochloride)	Complete recovery time, Motor, Mean (sciatic nerve [1]; [11])	Complete recovery time, Motor, Mean (sciatic nerve [1]; [12])	Complete recovery time, Motor, Mean (sciatic nerve [1]; [13])	Complete recovery time, Motor, Mean (sciatic nerve [1]; [14])	Complete recovery time, Motor, Mean (sciatic nerve [1]; [15])	Complete recovery time, Motor, Mean (sciatic nerve [1]; 0.125% drug alone)	Complete recovery time, Nociception, Mean (sciatic nerve [2]; [11])	Complete recovery time, Nociception, Mean (sciatic nerve [2]; [12])	dose-response of block, in words (sciatic nerve [2])	Complete recovery time, Nociception, Mean (sciatic nerve [2]; [13])	Complete recovery time, Nociception, Mean (sciatic nerve [2]; [14])	Complete recovery time, Nociception, Mean (sciatic nerve [2]; [15])	Complete recovery time, Nociception, Mean (sciatic nerve [2]; 0.125% drug alone)	further results
CCCCN1CCCCC1C(=O)Nc1c(C)cccc1C (stereo not shown) [Bupivacaine, bupivacaine hydrochloride]	2.31 h	2.31 h	23.14 h	2.50 h	predominantly nociceptive-specific blockade	intensification of both motor and nociceptive block															Complete recovery time, Motor, Mean (sciatic nerve [1]; [6]): 1.56 h; Complete recovery time, Motor, Mean (sciatic nerve [1]; [7]): 2.87 h; effect on motor block, in words (sciatic nerve [1]; capsaicin given simultaneously with the local anesthetic): decreased the absolute duration of motor block; Complete recovery time, Nociception, Mean (sciatic nerve [2]; [6]): 1.63 h; Complete recovery time, Nociception, Mean (sciatic nerve [2]; [7]): 4.75 h; nociceptive vs motor blockade, in words (sciatic nerve [2]; 0.25%, followed by capsaicin or vehicle 10 minutes later): significantly increased the nociceptive blockade over motor blockade
COc1cc(CNC(=O)CCCCC=CC(C)C)ccc1O [capsaicin, 8-methyl-N-vanillyl-6-nonenamide]																					motor and nociceptive block, in words (sciatic nerve [2]; injected alone, 0.05%, 0.2 mL): no detectable block
CCN(CC)CC(=O)Nc1c(C)cccc1C [Lidocaine, lidocaine hydrochloride]						intensification of both motor and nociceptive block	smallest differential block among all drug combinations														Complete recovery time, Motor, Mean (sciatic nerve [1]; [8]): 1.69 h; Complete recovery time, Motor, Mean (sciatic nerve [1]; [9]): 1.50 h; Complete recovery time, Motor, Mean (sciatic nerve [1]; [10]): 2.00 h; Complete recovery time, Motor, Mean (sciatic nerve [1]; 2% drug alone): 1.13 h; Complete recovery time, Nociception, Mean (sciatic nerve [2]; [8]): 7.62 h; Complete recovery time, Nociception, Mean (sciatic nerve [2]; [9]): 3.00 h; Complete recovery time, Nociception, Mean (sciatic nerve [2]; [10]): 2.12 h; Complete recovery time, Nociception, Mean (sciatic nerve [2]; 2% drug alone): 1.25 h; motor and nociceptive block, in words (sciatic nerve [2]; 2% given alone): complete but relatively short-lasting motor and nociceptive block; kind of blockade (nociceptive vs motor), in words (sciatic nerve [2]; listed as lidocaine, hydrochloride): predominantly nociceptive-specific blockade
CN(C)CCC=C1c2ccccc2CCc2ccccc21 [Amitriptyline, amitriptyline hydrochloride]	2.31 h	9.13 h	33.37 h	11.25 h			predominantly nociceptive-specific blockade; also recorded: large differential block	1.38 h	0.44 h	3.25 h	0.44 h	2.62 h	3.44 h	2.88 h	0.25 h	dose-dependent and predominantly nociceptive block	17.25 h	2.69 h	2.13 h	4.56 h	effect on motor block, in words (sciatic nerve [1]; 0.25%, followed by capsaicin): motor block decreased; effect on motor block, in words (sciatic nerve [1]; capsaicin given simultaneously with the local anesthetic, hydrochloride): significantly decreased the motor blockade; also recorded: decreased the absolute duration of motor block; complete block to pinprick (duration) [3, 16]: 4.5 h; time to full recovery [3, 16]: 96 h; complete block to pinprick (duration) ([3]; 3 h): 6 to 9 h; time to full recovery ([3]; 3 h): 216 h; skin effects, in words (skin; 2.5% amitriptyline patch alone): causes toxic effects in skin; skin effects, in words (skin; amitriptyline 2.5% with capsaicin 8% patch): no adverse skin reactions
C[N+](C)(C)CCC=C1c2ccccc2CCc2ccccc21 [N-Methyl Amitriptyline, N-methyl amitriptyline]	1.81 h	1.44 h	33.00 h	3.63 h	predominantly nociceptive-specific blockade			0.06 h	0.12 h	0.04 h	0.12 h	0.38 h	0.31 h	0.13 h	0.00 h	dose-dependent and predominantly nociceptive block	11.63 h	10.87 h	0.81 h	0.67 h	duration of motor blockade (sciatic nerve [1]; [17]): < 1 h; kind of blockade, in words (sciatic nerve [2]; 0.125% + capsaicin 0.05%, 10 minutes after or injected simultaneously): very prolonged sensory-selective block; duration of nociceptive blockade (sciatic nerve [2]; [17]): < 1 h
CC[N+](CC)(CC)CC(=O)Nc1c(C)cccc1C [QX-314]																					kind of sciatic nerve block, in words (sciatic nerve [4]): nociceptor-selective sciatic nerve block
